Data as given in patent publication US9040061B2, “Topical formulation for administering a compound” (Rigel Pharmaceuticals, Inc., priority 2011, dated 2015).
Converted amounts (≈) assume the structure as drawn. Structures can show the parent of a compound that is named as a salt. Where two headings read alike, the source gives them in different places. Marks after values point to notes of the source that are not given here. Values belong to the compound of their own block, whether it stands above or below them.

Legend:
[1] = Solubility studies of compound I; assay type: physicochemical
[2] = Solubility studies of compound I; assay type: physicochemical; remark: listed apart in the source
Experimental: The solubility of compound I free base in water is only 2 μg/mL. […] Accordingly, the free base was utilized for the formulation development of compound I.

[3] = system: human Ramos B cells stimulated with human IL-4 (JAK1 and JAK3, CD23 upregulation); experiment: Ramos B-cell line stimulated with IL-4, CD23 upregulation (FACS); assay type: cell-based; conditions: IL-4 50 units/mL for 20-24 hours, anti-CD23-PE FACS
Excerpt: One means of assaying for JAK inhibition is detection of the effect of compound I on the upregulation of downstream gene products. In the Ramos/IL4 assay, B-cells are stimulated with the cytokine Interleukin-4 (IL-4) leading to the activation of the JAK/Stat pathway through phosphorylation of the JAK family kinases, JAK1 and JAK3, which in turn phosphorylate and activate the transcription factor Stat-6. […] To study the effect of inhibitors (for example, the 2,4-substituted pyrimidinediamine compounds described herein) on the JAK1 and JAK3 kinases, human Ramos B cells are stimulated with human IL-4. Twenty to 24 hours post stimulation, cells are stained for upregulation of CD23 and analyzed using flow cytometry (FACS). […] An exemplary assay of this type is described in greater detail below.
B-cells stimulated with cytokine Interleukin-4 (IL-4) activate the JAK/Stat pathway through phosphorylation of the JAK family kinases, JAK-1 and JAK-3, which in turn phosphorylate and activate the transcription factor Stat-6. […] To study the effect of inhibitors on the JAK family kinases, human Ramos B cells are stimulated with human IL-4.
The Ramos B-cell line was acquired from ATCC (ATCC Catalog No. CRL-1596). […]
Cells were spun down and suspended in RPMI with 5% serum. […] Cells were then spun down and stained with anti-CD23-PE (BD Pharmingen, San Diego, Calif., Cat No. 555711) and analyzed by FACS. […]

[4] = system: receptor tyrosine kinase (RTK) signaling; experiment: Receptor tyrosine kinase signaling; assay type: cell-based
cell proliferation = experiment: Cell proliferation; assay type: cell-based
[5] = system: other cytokine (IL-1β and TNFα) signaling; experiment: Other cytokine signaling; assay type: cell-based
primary human T-cells = experiment: Primary human T-cell proliferation assay stimulated with IL-2; assay type: cell-based; conditions: IL-2, 72 hours, CellTiter-Glo
Excerpt: The JAK activity of compound I may further be characterized by assaying the effect of compound I on the proliferative response of primary human T-cells. In this assay, primary human T-cells derived from peripheral blood and pre-activated through stimulation of the T-cell receptor and CD28, proliferate in culture in response to the cytokine Interleukin-2 (IL-2). This proliferative response is dependent on the activation of JAK1 and JAK3 tyrosine kinases, which phosphorylate and activate the transcription factor Stat-5. The primary human T-cells are incubated with compound I in the presence of IL-2 for 72 hours and at the assay endpoint intracellular ATP concentrations are measured to assess cell viability. A reduction in cell proliferation compared to control conditions is indicative of inhibition of the JAK kinase pathway. An exemplary assay of this type is described in greater detail below.
Primary human T-cells derived from peripheral blood and pre-activated through stimulation of the T-cell receptor and CD28, proliferate in vitro in response to the cytokine Interleukin-2 (IL-2). […]
Proliferation was measured using CellTiter-Glo® Luminescent Cell Viability Assay (Promega), which determines the number of viable cells in culture based on quantitation of the ATP present, as an indicator of metabolically active cells. […]

Syk = target: T1, Syk (Homo sapiens, UniProt P43405); experiment: Human cell based assay against Syk; conditions: human cell based assays, read-out: half maximal effective concentration (EC50)
T1 construct: endogenous in cells

solubility ([1]; DMI, organic solvent or mixture, DMI (temperature not given), read-out: Solubility): 400 µg/mL
solubility ([1]; EtOH, organic solvent or mixture, EtOH (temperature not given), read-out: Solubility): 300 µg/mL
solubility ([1]; PEG400 (temperature not given)): 2.6 ^e mg/mL
solubility ([1]; PG): 5.2 ^e mg/mL
solubility ([1]; diethylene glycol monoethyl ether (Transcutol P), organic solvent or mixture, Diethylene glycol monoethyl ether (transcutol P), read-out: Solubility): 900 µg/mL
solubility ([1]; isopropyl myristate, oil or lipid, Isopropyl Myristate, read-out: Solubility): 5 µg/mL
solubility ([1]; propylene glycol laurate (Lauroglycol FCC), oil or lipid, Propylene Glycol Laurate (Lauroglycol FCC), read-out: Solubility): 20 µg/mL
solubility ([1]; propylene glycol monocaprylate (Capryol 90), oil or lipid, Propylene Glycol Monocaprylate (Capryol 90), read-out: Solubility): 70 µg/mL
solubility ([2]; 40% TPGS/60% PEG400, organic solvent or mixture, 40% TPGS/60% PEG400, read-out: Solubility): 1700 µg/mL
solubility ([2]; IPA, organic solvent or mixture, IPA, read-out: Solubility): 37 µg/mL
solubility ([2]; oleyl alcohol, oil or lipid, Oleyl alcohol, read-out: Solubility): 200 µg/mL
solubility ([2]; polyoxyglyceride (Labrafil M1944 CS), oil or lipid, Polyoxyglyceride (Labrafil M1944 CS), read-out: Solubility): 70 µg/mL
solubility ([2]; polyoxyglyceride (Labrasol), oil or lipid, Polyoxyglyceride (Labrasol), read-out: Solubility): 1800 µg/mL
solubility ([2]; triglyceride, oil or lipid, Triglyceride, read-out: Solubility): 20 µg/mL
SMILES: C#CCOc1ccc(Nc2nc(Nc3ccc(C)c(S(N)(=O)=O)c3)ncc2F)cc1 [Compound I HCl, N2-(3-aminosulfonyl-4-methylphenyl)-5-fluoro-N4-[4-(prop-2-ynyloxy)phenyl]-2,4-pyrimidinediamine]

solubility ([1]; PEG400 (temperature not given)): 48000 µg/mL
solubility ([1]; PG): 15 ^d mg/mL
SMILES: C#CCOc1ccc(Nc2nc(Nc3ccc(C)c(S(N)(=O)=O)c3)ncc2F)cc1 [Compound I besylate salt, N2-(3-aminosulfonyl-4-methylphenyl)-5-fluoro-N4-[4-(prop-2-ynyloxy)phenyl]-2,4-pyrimidinediamine]

IC50 [3]: 0.056 nM
solubility ([1]; 5% THF-95% PEG400, organic solvent or mixture, 5% THF-95% PEG400, read-out: Solubility): 117000 µg/mL (≈ 274 mM)
solubility ([1]; 10% THF-90% PEG400, organic solvent or mixture, 10% THF-90% PEG400, read-out: Solubility): 129000 µg/mL (≈ 302 mM)
solubility ([1]; 20% EtOH-80% PEG400, organic solvent or mixture, 20% EtOH-80% PEG400, read-out: Solubility): 126000 µg/mL (≈ 295 mM)
solubility ([1]; 20% H2O-80% THF, organic solvent or mixture, 20% H2O-80% THF, read-out: Solubility): 133000 µg/mL (≈ 311 mM)
solubility ([1]; 50% EtOH-50% PEG400, organic solvent or mixture, 50% EtOH-50% PEG400, read-out: Solubility): 136000 µg/mL (≈ 318 mM)
solubility ([1]; 90% THF-10% PEG400, organic solvent or mixture, 90% THF-10% PEG400, read-out: Solubility): 75000 µg/mL (≈ 175 mM)
solubility ([1]; EtOH, 25 °C, organic solvent or mixture, EtOH, determined at 25° C., read-out: Solubility): 3200 µg/mL (≈ 7.49 mM)
solubility ([1]; Glycofurol, listed as Compound I free base): >205 ^b mg/mL
solubility ([1]; PEG400 (temperature not given), listed as Compound I free base): 129 ^c mg/mL
solubility ([1]; PEG400, 25 °C, organic solvent or mixture, PEG400, determined at 25° C., read-out: Solubility): > 200000 µg/mL
solubility ([1]; PEG400, determined at 25° C.): 292000 µg/mL (≈ 683 mM)
solubility ([1]; PG, listed as Compound I free base): 27 ^c mg/mL
solubility ([1]; glycofurol, organic solvent or mixture, Glycofurol, read-out: Solubility): > 200000 µg/mL
solubility ([1]; glycofurol/water 8/2, organic solvent or mixture, Glycofurol/water 8/2, read-out: Solubility): < 205000 µg/mL
solubility ([1]; glycofurol/water 9/1 w/w, organic solvent or mixture, Glycofurol/water 9/1 w/w, read-out: Solubility): > 202000 µg/mL
solubility ([1]; water, 25 °C, water, determined at 25° C., read-out: Solubility): 2 µg/mL (≈ 0.00468 mM)
activity on receptor tyrosine kinase (RTK) signaling [4]: little or no activity
solubility ([2]; 4% H2O-96% THF, organic solvent or mixture, 4% H2O-96% THF, read-out: Solubility): 77000 µg/mL (≈ 180 mM)
solubility ([2]; 12% H2O-88% THF, organic solvent or mixture, 12% H2O-88% THF, read-out: Solubility): 202000 µg/mL (≈ 473 mM)
solubility ([2]; 16% H2O-84% THF, organic solvent or mixture, 16% H2O-84% THF, read-out: Solubility): 163000 µg/mL (≈ 381 mM)
solubility ([2]; 95% THF-5% PEG400, organic solvent or mixture, 95% THF-5% PEG400, read-out: Solubility): 70000 µg/mL (≈ 164 mM)
solubility ([2]; DMI, 25 °C, organic solvent or mixture, DMI, determined at 25° C., read-out: Solubility): 124000 µg/mL (≈ 290 mM)
solubility ([2]; Miglyol 812N, oil or lipid, Miglyol 812N, read-out: Solubility): 2300 µg/mL (≈ 5.38 mM)
compound I concentration that can be obtained (solubility study) ([2]; at 45° C. in a formulation containing 14% water, 45% PEG400, and 20% PEG4500): 120 mg/g
solubility ([2]; castor oil, oil or lipid, Castor Oil, read-out: Solubility): 7400 µg/mL (≈ 17.3 mM)
solubility ([2]; water, 25 °C, water, 25° C., read-out: water solubility): 2 µg/mL (≈ 0.00468 mM)
EC50 (Syk): ~140 nM
SMILES: C#CCOc1ccc(Nc2nc(Nc3ccc(C)c(S(N)(=O)=O)c3)ncc2F)cc1 [Compound I, N2-(3-aminosulfonyl-4-methylphenyl)-5-fluoro-N4-[4-(prop-2-ynyloxy)phenyl]-2,4-pyrimidinediamine]
inhibition of cell proliferation (cell proliferation): not a broad inhibitor of cell proliferation
activity on other cytokine (IL-1β and TNFα) signaling [5]: little or no activity
IC50 (primary human T-cells): 0.181 nM
